Experimental data published in US20060194845A1, “Use of ALK 5 inhibitors to modulate or inhibit myostatin activity leading to increased lean tissue accretion in animals” (Schering Corporation, priority 2004, published 2006).

System: rats
Assay: Effect of Compound A on lean and fat tissue content in rats (Molecular Resonance Imaging)
Assay type: in vivo, rat
Conditions: 10 mg/kg in feed
Method: Ten animals were treated with Compound A and a second group of ten animals served as a control group. Baseline values, in grams, of lean and fat tissue were assessed using […] Resonance Imaging technology for all animals.

Q: `NC(=O)c1ccc(-c2nc(-c3ccc4c(c3)OCO4)c(-c3ccccn3)[nH]2)cc1` [Compound A] was tested. Which “fat content vs control (observation in words)” value did it give?
A: slight trend towards decreased fat content

Q: What about the “Fat (g) Δ (change in grams of tissue from baseline)” value (21 days) of the same molecule?
A: 50.6 g

Q: And the “Lean (g) Δ (change in grams of tissue from baseline)” value (21 days)?
A: 93.7 g

Q: What about the “Fat (g) Δ (change in grams of tissue from baseline)” value (39 days) of the same molecule?
A: 73.6 g

Q: And the “increase in lean tissue compared to the control group” value (39 days, 137.8 vs. 115.3, p<0.0036)?
A: 19.6%

Q: And the “Lean (g) Δ (change in grams of tissue from baseline)” value (39 days, p<0.0036 vs control, 10 mg/kg)?
A: 137.8 g
